Measured values reported in patent US20140296567A1, “3-HYDROXYANTHRANILIC ACID (3-HAA) THERAPY FOR PREVENTION AND TREATMENT OF HYPERLIPIDEMIA AND ITS CARDIOVASULAR COMPLICATIONS” (priority 2011, published 2014).

How the values were obtained:
LdIr−/− mice [1] = assay: Plasma lipid analysis (total cholesterol, triglycerides; enzymatic colorimetric kits); type: in vivo; conditions: 3-HAA 200 mg/kg i.p., 8 weeks, high-fat diet, vs PBS; P<0.01
Description: It was hypothesized that induction of protective immunity, with effects on metabolism and inflammation, could be achieved by injecting 3-HAA (200 mg/kg) intraperitoneally, 3 times per week, for 8 weeks. Twelve weeks old LdIr−/− mice were treated with 3-HAA, or PBS as control. The mice were fed a high-fat diet starting 2 days after the first injection until sacrifice, 8 weeks later with CO2.
Plasma cholesterol and triglycerides were measured using enzymatic colorimetric kits according to the manufacturer's protocol. Dissected aortic arches were stained with Sudan IV en face and % lesion area of total vessel area was calculated. Additionally, the effect of 3-HAA on the uptake oxLDL was evaluated in cultures of peritoneal macrophages from 3-HAA or PBS treated mice.
(§1) LdIr−/− mice were bred and housed in the Animal Experimentation Unit at the Center for Molecular Medicine, Karolinska University Hospital. The mice (n=7-10 per group) received 3 intra-peritoneal injections of PBS (200 μl) or 3-HAA (200 mg/Kg in PBS) per week for 6 weeks and 1 injection per week in the following two weeks (total 24 injections) and were sacrificed with CO2. […]
Plasma cholesterol and triglycerides were measured using enzymatic colorimetric kits (Randox Lab. Ltd. Crumin, UK) according to the manufacturer's protocol.

LdIr−/− mice [2] = assay: Lipoprotein profiles of plasma (size fractionation, cholesterol per fraction); type: in vivo; conditions: 3-HAA 200 mg/kg i.p., 8 weeks
Description: (§2) LdIr−/− mice were bred and housed in the Animal Experimentation Unit at the Center for Molecular Medicine, Karolinska University Hospital. The mice (n=7-10 per group) received 3 intra-peritoneal injections of PBS (200 μl) or 3-HAA (200 mg/Kg in PBS) per week for 6 weeks and 1 injection per week in the following two weeks (total 24 injections) and were sacrificed with CO2. The mice were fed a high-fat diet (corn starch, cocoa butter, casein, glucose, sucrose, cellulose flour, minerals and vitamins; 17.2% protein, 21% fat (62.9% saturated, 33.9 unsaturated and 3.4% polyunsaturated), 0.15% cholesterol, 43% carbohydrates, 10% H2O and 3.9% cellulose fibers; R638 Lantmännen, Sweden) starting 2 days after the start of treatment.
Plasma cholesterol lipoprotein profiles were determined using a modification of the method of Okazaki et al^34. Briefly, plasma samples (50 μl) from mice treated with 3-HAA or PBS were fractionated using an HR10/30 Superose 6 column (GE Healthcare, Uppsala, Sweden) and a Discovery BIO GFC-500 as pre-column (5 cm×7.8 i.d.; Supelco®, Sigma-Aldrich, PA, USA) coupled to Prominence UFLC system (Shimadzu, Kyoto, Japan) and equilibrated with Tris-buffered saline, pH 7.4. Fractions of 200 μl were collected using Foxy Jr® fraction collector (Teledyne Isco Inc, NE, USA) and total cholesterol was determined in each fraction using enzymatic colorimetric kit (Randox Lab. Ltd. Crumin, UK).

[3] = test system: peritoneal macrophages from LdIr−/− mice; assay: OxLDL uptake by peritoneal macrophages (FITC-oxLDL, flow cytometry); type: cell-based; conditions: macrophages from mice treated with 3-HAA 200 mg/Kg i.p. for 8 weeks vs PBS; 20 μg/ml FITC-oxLDL, 2 h, 37° C.; P<0.01
Description: Peritoneal macrophages from LdIr−/− mice injected with 3-HAA (200 mg/Kg) or PBS (8 weeks treatment) were incubated with FITC-oxLDL at a concentration of 20 μg protein/ml for 2 h at 37° C. The uptake was quantified by flow cytometry. (A) Values given are MFI of FITC-oxLDL, means±SE of triplicate wells for each mouse (n=5 and 6, for 3-HAA or PBS respectively).
LDL was labeled using a modification of a previously described method^32. Briefly, LDL (1.5-2 mg/ml) was dialyzed overnight against 500 mM NaHCO3 pH 9.5. Next, 50 μg of FITC (Sigma-Aldrich, St. Louis, Mo., USA), dissolved in DMSO (1 mg/ml), was added for each mg of protein in LDL, and incubated at room temperature for 2 hours. After incubation conjugates were separated from the free fluorochrome by gel filtration using a PD10 column (GE Healthcare, Uppsala, Sweden) and PBS for elution. FITC conjugation was evaluated by absorption spectroscopy against a FITC standard curve at 495 nm. Protein concentration was determined by Bradford assay (Biorad, Calif., USA). […] The extent of oxidation was evaluated by the TBARS assay, as described^33.
Twenty four hours after the last injection of 3-HAA or PBS, peritoneal macrophages were isolated from LdIr−/− mice by peritoneal lavage with PBS. […] The cells were analyzed on a CyAn™ ADP flow cytometer (Dako, Glostrup, Denmark).

LdIr−/− mice [4] = assay: Lesion analysis, en face Sudan IV staining of the aortic arch; type: in vivo; conditions: 3-HAA 200 mg/kg i.p., 8 weeks on high fat diet, vs PBS; P<0.001
Description: Twelve weeks old LdIr−/− mice were treated with 3-HAA or PBS as control. The mice were sacrificed after 8 weeks on a Western diet. Dissected arches were stained with Sudan IV en face and % lesion area of total vessel area was calculated using Image J image analysis software (NIH, Bethesda, Md.). The additive area of all the plaques in a given aortic arch was calculated as a percent of the total surface area of the arch. (n=7 and 10, for 3-HAA or PBS respectively). ***) P<0.001.
as §1
En face lipid accumulation was determined in the aortic arch from 3-HAA and PBS treated mice using Sudan IV staining. […] The additive area of all the plaques in a given aortic arch was calculated as a percent of the total surface area of the arch (not including branching vessels). Quantitation of plaques was performed using Image J software (NIH, Bethesda, USA).

[5] = Body weight of treated mice; type: in vivo; conditions: 3-HAA 200 mg/kg i.p., 8 weeks; data not shown
Description: as §2

Structure (SMILES): Nc1c(O)cccc1C(=O)O [3-HAA, 2-Amino-3-hydroxybenzoic acid]
- reduction in plasma total cholesterol (LdIr−/− mice [1]): approx 50%
- reduction in plasma triglycerides (LdIr−/− mice [1]): approx 72%
- HDL levels (LdIr−/− mice [2]; high-fat diet, vs PBS): effectively raised HDL levels
- LDL/HDL ratio (LdIr−/− mice [2]; mean±SEM, PBS group 2.3±0.24, P<0.05): 1.4±0.16
- VLDL/HDL ratio (LdIr−/− mice [2]; mean±SEM, PBS group 4.0±0.55, P<0.01): 1.4±0.31
- reduced uptake of FITC-oxLDL [3]: approx 79%
- reduction in atherosclerotic lesion area in en face preparations of the aortic arch (LdIr−/− mice [4]): approximately 90%
- effect on body weight [5]: no effect on body weight
